Results reported in patent US5006468A, “Novel urease and method of producing the same” (Suntory Limited, priority 1987, dated 1991).

System: urease produced by Arthrobacter mobilis SAM0752 (FERM BP-2127)
Assay: Km value for urea of the purified urease
Assay type: biochemical
Settings: 0.1M acetic acid buffer (pH 4.5), 37° C.
Procedure: The activity was determined by measuring the amount of ammonia produced by decomposition of urea during the enzyme reaction per unit of time. In particular, 0.025 ml of an enzyme solution was added to a reaction solution containing 0.2 ml of a 0.1M acetic acid buffer (pH 4.5) and 0.025 ml of a 0.1M urea solution, followed by incubation at 37° C. for a given time (10 to 20 minutes). The reaction was terminated by adding 0.025 ml of a 33% trichloroacetic acid solution. […] of the reaction solution was added to 1 ml of a coloring solution which had been prepared by mixing 10 ml of a 0.3M phosphate buffer (pH 7.5), 0.56 ml of 25 mg/ml o-phthalaldehyde in ethanol, and 0.56 ml of 5 mg/ml 2-mercaptoethanol in ethanol. After allowing the thus-obtained mixture to stand for 45 minutes at room temperature, the increase in absorbance at a wavelength of 410 nm was measured. The enzyme activity was then calculated from a calibration curve which was formed using predetermined amounts of ammonium chloride as a reference substance. This method was based on the method by Heini et al. [Eur. J. Biochem., 162, 541 (1987)]. The activity unit of the enzyme was defined as the amount of ammonia produced in terms of μ mol/min.

**Q.** `NC(N)=O` [urea] was tested. Which Km (20% ethanol added) did it give?
**A.** ~3.7 mM

**Q.** And the Km (no ethanol added)?
**A.** ~3.6 mM
